Measured values from US20250113823A1, “Arthropod Control Compositions” (priority 2022, published 2025).
Read-outs that look alike come from different tables or passages of the source.

Assays:
[1] = tested on: Anopheles gambiae; assay: Arm-in-cage test on human volunteers over time; type: in vivo; conditions: arm treated with 20%
[2] = tested on: Anopheles gambiae; assay: Warm Body assay, mosquito landings on treated warm body; type: in vivo
Description: Anopheles gambiae is also a model organism as it is anthropophilic and transmits malaria.
The controlling effect according to the present invention was assessed using an adapted Warm Body assay as defined in Kröber T, Kessler S, Frei J, Bourquin M, Guerin P M. 2010. J Am Mosq Control Assoc. 26: 381-386. In this in-vitro assay the number of mosquito landing on a warm body, simulating an attractive host treated with the tested stimuli, was measured in order to assess the repellence effect.
On the sandblasted glass Petri dish covering the warm body (28.3 cm^2), 100 μL of the compounds diluted at different concentrations in ethanol was applied. The number of mosquito landing on the warm body was counted for each stimulus and pure ethanol (solvent) as control.

[3] = tested on: Aedes aegypti; assay: as above; type: in vivo; conditions: for pest or weed control at 1 % / pest or weed control at 0.04 %: read-out: repellence; for pest or weed control at 0.04 %: intermediate concentration of 0.04% (Table 3)
How it was run: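 Compounds in ethanol (100 μL, various concentrations) were applied to a sandblasted glass dish covering the warm body (28.3 cm^2), with ethanol as control. Landings were counted automatically from 30 non-blood-fed, sugar-fed Aedes aegypti Rockefeller females aged 5–10 days, under 150 lux.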

[4] = tested on: Ixodes ricinus; assay: Warm Plate assay, tick repellence; conditions: for pest or weed control at 400 µg/mL / pest or weed control at 2000 µg/mL / pest or weed control at 10000 µg/mL: Ixodes ricinus, read-out: Percentage of repellence of ticks Ixodes ricinus on the warm plate
[5] = Aedes aegypti, 0.016 mg/mL (Table 3), read-out: Percentage of repellence of mosquitoes Aedes aegypti landing on the warm body
[6] = Aedes aegypti, 0.4 mg/mL (Table 3), read-out: Percentage of repellence of mosquitoes Aedes aegypti landing on the warm body
[7] = Aedes aegypti, 10 mg/mL (Table 3), read-out: Percentage of repellence of mosquitoes Aedes aegypti landing on the warm body
[8] = Aedes aegypti, highest tested concentration, 1% (Table 3)

| Structure (SMILES) | pest or weed control at 400 µg/mL [4] [%] | pest or weed control at 2000 µg/mL [4] [%] | pest or weed control at 10000 µg/mL [4] [%] | pest or weed control at 16 µg/mL [3, 5] [%] | pest or weed control at 400 µg/mL [3, 6] [%] | pest or weed control at 10000 µg/mL [3, 7] [%] | pest or weed control at 1 % [3, 8] [%] | pest or weed control at 0.04 % ([3]; Aedes aegypti) [%] | ticks repelled ([4]; concentration of 1% (Table 10)) | further results |
| --- | --- | --- | --- | --- | --- | --- | --- | --- | --- | --- |
| CCCCN(CCC(=O)OCC)C(C)=O [IR3535, ethyl butylacetylaminopropionate, reference compound] |  |  |  |  |  |  |  |  |  | Complete Protection Time (no confirmed landing) [1]: 0.17 h |
| COC(=O)Oc1ccc(C)cc1OC [compound 1141, (2-methoxy-4-methylphenyl) methyl carbonate] | 8.3 | 58.3 | 66.7 |  |  |  |  |  |  | pest or weed control at 4470 µg/mL ([2]; Anopheles gambiae, 4.47 mg/mL (Table 4), read-out: Percentage of repellence of mosquitoes Anopheles gambiae landing on the warm body): 100%; pest or weed control at 10000 µg/mL ([2]; Anopheles gambiae, 10 mg/mL (Table 4), read-out: Percentage of repellence of mosquitoes Anopheles gambiae landing on the warm body): 69%; repellence (no mosquito landing on the attractive stimulus) ([2]; with at least one of the two concentrations 0.447% & 1% (Table 4)): 100%; pest or weed control at 3.2 µg/mL ([3]; Aedes aegypti, 0.0032 mg/mL (Table 1), read-out: Percentage of repellence of mosquitoes Aedes aegypti landing on the warm body): 24%; pest or weed control at 7.1 µg/mL ([3]; Aedes aegypti, 0.0071 mg/mL (Table 1), read-out: Percentage of repellence of mosquitoes Aedes aegypti landing on the warm body): 39%; pest or weed control at 16 µg/mL ([3]; Aedes aegypti, 0.016 mg/mL (Table 1), read-out: Percentage of repellence of mosquitoes Aedes aegypti landing on the warm body): 17%; pest or weed control at 35.7 µg/mL ([3]; Aedes aegypti, 0.0357 mg/mL (Table 1), read-out: Percentage of repellence of mosquitoes Aedes aegypti landing on the warm body): 13%; pest or weed control at 53 µg/mL ([3]; Aedes aegypti, 0.053 mg/mL (Table 1), read-out: Percentage of repellence of mosquitoes Aedes aegypti landing on the warm body): 50%; pest or weed control at 80 µg/mL ([3]; Aedes aegypti, 0.08 mg/mL (Table 1), read-out: Percentage of repellence of mosquitoes Aedes aegypti landing on the warm body): 39%; pest or weed control at 178 µg/mL ([3]; Aedes aegypti, 0.178 mg/mL (Table 1), read-out: Percentage of repellence of mosquitoes Aedes aegypti landing on the warm body): 67%; pest or weed control at 400 µg/mL ([3]; Aedes aegypti, 0.4 mg/mL (Table 1), read-out: Percentage of repellence of mosquitoes Aedes aegypti landing on the warm body): 72%; pest or weed control at 890 µg/mL ([3]; Aedes aegypti, 0.89 mg/mL (Table 1), read-out: Percentage of repellence of mosquitoes Aedes aegypti landing on the warm body): 98%; pest or weed control at 2000 µg/mL ([3]; Aedes aegypti, 2 mg/mL (Table 1), read-out: Percentage of repellence of mosquitoes Aedes aegypti landing on the warm body): 89%; pest or weed control at 4470 µg/mL ([3]; Aedes aegypti, 4.47 mg/mL (Table 1), read-out: Percentage of repellence of mosquitoes Aedes aegypti landing on the warm body): 87%; pest or weed control at 10000 µg/mL ([3]; Aedes aegypti, 10 mg/mL (Table 1), read-out: Percentage of repellence of mosquitoes Aedes aegypti landing on the warm body): 91% |
| COc1ccc(C=O)c(OC(C)=O)c1 [compound 1472, (2-formyl-5-methoxyphenyl) acetate] | 0 | 54.5 | 100 | 31 | 81 | 100 | > 90 | > 75 | repel all the ticks | mosquito landing within the two minutes of experiments ([3]; highest tested concentration, 1% (Table 3)): protect the attractive stimulus for any mosquito landing |
| C=CCOCc1ccc(O)c(OCC)c1 [compound 1479, 4-[(allyloxy)methyl]-2-ethoxyphenol] | 66.7 | 100 | 100 | 55 | 89 | 98 | > 90 | > 75 | repel all the ticks | pest or weed control at 0.0016 % ([3]; Aedes aegypti, lowest concentration of 0.0016% (Table 3), read-out: reduce the number of mosquito landings): > 50%; ticks repelled ([4]; concentrations of 0.2% and 1% (Table 10)): repelled all ticks; fraction of the tested ticks repelled ([4]; lowest tested concentration of 0.04% (Table 10)): ⅔ |
| CCOCc1ccc(O)c(OCC)c1 [compound 1482, 2-ethoxy-4-(ethoxymethyl)phenol] | 30.8 | 66.7 | 100 | 31 | 82 | 96 | > 90 | > 75 | repel all the ticks |  |
